In US10712349B2, “Circulating KIM-1 levels for detection of pathologies associated with injury to, or cancer of, the kidney” (THE BRIGHAM AND WOMEN'S HOSPITAL, INC., priority 2014, dated 2020):
Entries after “also recorded” stand apart in the source; their conditions may differ.

Legend:
male BALB/c mice = assay: Liver injury in mice (CCl4), specificity of plasma KIM-1 to renal injury; format: in vivo, mouse; conditions: 48 hours
Description: As controls, male BALB/c mice were injected intraperitoneally once with 0.5 ml/kg of 10% CC14 in vegetable oil (n=5) or vegetable oil alone (vehicle, n=5), as previously de-scribed.^21 Forty-eight hours after CCl4 administration, mice were euthanized and urine, plasma, and tissue samples were collected and analyzed.
(§1) Microbead-based assays for rodent and human plasma and serum KIM-1 were developed, and extensive validation of the assays were performed using previously described approaches.^24 Urinary KIM-1 in rodents and humans was measured using microbead based assays as described previously.5,7,25,26 Capture antibodies (MAB 1817 for mouse, AF1750 for human [R&D Systems]), MARKE^25 antibody for rat (developed at Brigham and Women's Hospital) were conjugated with COOH polystyrene beads (Bio-Rad) with an amine coupling kit (Bio-Rad) using N-hydroxysuccinamide-1-ethyl-3-(3-dimethylaminopropyl) carbodiimide chemistry according to the manufacturer's protocol. Approximately 6000 beads in […] of sample diluent buffer (0.1M HEPES, 0.1M NaCl, 0.1% Tween-20, and 1% BSA; pH, 7.4; filter sterilized) were incubated with […] of sample or recombinant KIM-1 protein (1817-TM-050-CF for mice, 1750-TM for humans [R&D systems]), and KIM-FC for rats [developed at Brigham and Women's Hospital]) for 45 minutes. After incubation, beads were washed three times with PBS with Tween and incubated with biotinylated anti-KIM-1 detection antibody (BAF 1817 for mice, BAF 1750 for humans [R&D Systems]) and MARKE-2 for rats [developed at Brigham and Women's Hospital]) for 30 minutes. Beads were washed again with PBS with Tween and incubated for 15 minutes with the streptavidin-phycoerythrin solution (Invitrogen). The signal from the fluorochrome, which is directly proportional to the amount of antigen bound at the microbead surface, is captured using the Bio-Plex system (Bio-Rad). Data were interpreted using a five parametric logistic regression analysis.
To evaluate the specificity of plasma KIM-1 to renal injury, mice were treated with carbon tetrachloride (CCl4), a known hepatotoxicant. […] Thus, plasma KIM-1 was not affected by liver injury.

Male Sprague-Dawley rats = assay: Gentamicin-induced nephrotoxicity in rats; format: in vivo, rat; conditions: for kidney histopathologic analysis: kidney tissue collected day 11
Description: Rats were provided with free access to food and water and subjected to a 12-hour light and dark cycle. Rats were euthanized on day 11, and urine, plasma, and tissue samples were collected and analyzed. Tissue samples were fixed in 10% neutral buffered formalin or snap frozen. For histologic assessment, […] paraffin sections were prepared and stained with hematoxylin and eosin. The rat studies were undertaken in accordance with criteria outlined in a license granted under the Animals (Scientific Procedures) Act 1986 and approved by the University of Liverpool Animal Ethics Committee.
as §1
The inventors also investigated whether plasma KIM-1 levels can serve as a biomarker in gentamicin-induced kidney injury in a different rodent species, rats. […] Plasma, urine, and kidney tissue were collected on day 11. The extent of kidney damage was assessed by histo-pathologic analysis and changes in plasma creatinine. […] The lumens of the tubules were filled with casts and dead cells. […] Thus, plasma KIM-1 is a sensitive marker of ischemia and toxin-induced injury to the proximal tubule in mice and rats.

[1] = single dose of 10% CCl4, 0.5 ml/kg

| Molecule | liver histopathology (male BALB/c mice; single dose of 10% CCl4, 0.5 ml/kg intraperitoneally) | kidney morphology (histopathology) (male BALB/c mice; [1]) | plasma KIM-1 (male BALB/c mice; [1]) | plasma creatinine (male BALB/c mice; [1]) | urinary KIM-1 (male BALB/c mice; [1]) | kidney histopathologic analysis (Male Sprague-Dawley rats; 50 mg/kg gentamicin per day intraperitoneally for 10 days) | urinary KIM-1 levels (normalized to urine creatinine) (Male Sprague-Dawley rats; 10 daily doses of 50 or 200 mg/kg, day 11) | kidney sections, hematoxylin and eosin staining (Male Sprague-Dawley rats; 50 or 200 mg/kg daily for 10 days, euthanized day 11 (FIG. 1H)) | kidney histopathologic analysis (Male Sprague-Dawley rats; daily doses of 200 mg/kg gentamicin for 10 days) |
| --- | --- | --- | --- | --- | --- | --- | --- | --- | --- |
| ClC(Cl)(Cl)Cl [CCl4, carbon tetrachloride] | liver necrosis | No histopathologic changes | no significant alterations; also recorded: not changed | no significant alterations | no significant alterations | – | – | – | – |
| gentamicin | – | – | – | – | – | brush border loss, focal tubular necrosis, and interstitial inflammation | significantly increased | loss of brush border, necrosis, and sloughing of cells into the tubular lumen | extensive diffuse cell necrosis |
